Reference: patent US10981917B2, “Heterocyclic compound, its preparation method, and pharmaceutical composition comprising the same” (Daewoong Pharmaceutical Co., Ltd., priority 2017, dated 2021)

target: PRS (prolyl-tRNA synthetase) protein, PRS portion of EPRS (Homo sapiens (Human), UniProt P07814); assay: PRS enzyme activity inhibition experiment ([3H]proline, liquid scintillation); format: biochemical; conditions: purified PRS protein, 37° C. for 5 to 10 minutes
Summary of the method: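 Values are % inhibition or IC50 ranges (A ≤100 nM, B 100–500 nM, C ≥500 nM) from [3H]proline incorporation measured by liquid scintillation. PRS portion of human EPRS, reacted 5–10 min at 37 °C in pH 7.4 phosphate buffer containing 5 mM ATP and tRNA, compound at 1 μM.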

Sequence of PRS (prolyl-tRNA synthetase) protein, PRS portion of EPRS (P07814 1007-1512): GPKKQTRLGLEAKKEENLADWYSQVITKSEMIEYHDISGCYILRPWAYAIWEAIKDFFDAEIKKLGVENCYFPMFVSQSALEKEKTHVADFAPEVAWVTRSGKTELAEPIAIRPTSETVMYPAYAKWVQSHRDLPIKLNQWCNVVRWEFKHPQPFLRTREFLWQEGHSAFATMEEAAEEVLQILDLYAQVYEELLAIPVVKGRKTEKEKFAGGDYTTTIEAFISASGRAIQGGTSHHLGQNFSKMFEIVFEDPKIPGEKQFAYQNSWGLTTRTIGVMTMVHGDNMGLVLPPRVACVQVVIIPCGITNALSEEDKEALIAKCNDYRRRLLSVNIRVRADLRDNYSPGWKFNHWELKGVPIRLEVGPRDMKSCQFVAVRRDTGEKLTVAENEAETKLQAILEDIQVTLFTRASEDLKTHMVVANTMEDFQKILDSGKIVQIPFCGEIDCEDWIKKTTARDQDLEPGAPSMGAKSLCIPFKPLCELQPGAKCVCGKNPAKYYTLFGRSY

`O[C@H]1CCCN[C@@H]1CCCn1cnc2nc(Cl)ccc21` [Example 117, (2R,3S)-2-(3-(5-chloro-1H-imidazo[4,5-b]pyridin-1-yl)propyl)piperidin-3-ol] and `O[C@H]1CCCN[C@@H]1CCCn1cnc2nc(Br)ccc21` [Example 119, (2R,3S)-2-(3-(5-bromo-1H-imidazo[4,5-b]pyridin-1-yl)propyl)piperidin-3-ol] cannot be ordered by IC50: 100 to 500 nM for the first, no less than 500 nM for the second.

`O[C@H]1CCCN[C@@H]1CCCn1cnc2ccc(Cl)nc21` [Example 118, (2R,3S)-2-(3-(5-chloro-3H-imidazo[4,5-b]pyridin-3-yl)propyl)piperidin-3-ol] and `O[C@H]1CCCN[C@@H]1CCCn1cnc2ccc(C(F)(F)F)nc21` [Example 129, (2R,3S)-2-(3-(5-(trifluoromethyl)-3H-imidazo[4,5-b]pyridin-3-yl)propyl)piperidin-3-ol] cannot be ordered by IC50: no less than 500 nM for the first, no less than 500 nM for the second.

`O[C@H]1CCCN[C@@H]1CCCn1cnc2ncc(Br)cc21` [Example 120, (2R,3S)-2-(3-(6-bromo-1H-imidazo[4,5-b]pyridin-1-yl)propyl)piperidin-3-ol] and `O[C@H]1CCCN[C@@H]1CCCn1cnc2cnc(Br)cc21` [Example 124, (2R,3S)-2-(3-(6-bromo-1H-imidazo[4,5-c]pyridin-1-yl)propyl)piperidin-3-ol] cannot be ordered by IC50: no less than 500 nM for the first, no less than 500 nM for the second.

`Cc1ccc2c(ncn2CCC[C@H]2NCCC[C@@H]2O)n1` [Example 121, (2R,3S)-2-(3-(5-methyl-1H-imidazo[4,5-b]pyridin-1-yl)propyl)piperidin-3-ol] and `O[C@H]1CCCN[C@@H]1CCCn1cnc2nc(Cl)ncc21` [Example 135, (2R,3S)-2-(3-(2-chloro-7H-purin-7-yl)propyl)piperidin-3-ol] cannot be ordered by IC50: 100 to 500 nM for the first, no less than 500 nM for the second.

`O[C@H]1CCCN[C@@H]1CCCn1cnc2cnc(Cl)cc21` [Example 122, (2R,3S)-2-(3-(6-chloro-1H-imidazo[4,5-c]pyridin-1-yl)propyl)piperidin-3-ol] and `O[C@H]1CCCN[C@@H]1CCCn1cnc2cc(Cl)ncc21` [Example 123, (2R,3S)-2-(3-(6-chloro-3H-imidazo[4,5-c]pyridin-3-yl)propyl)piperidin-3-ol] cannot be ordered by IC50: 100 to 500 nM for the first, no less than 500 nM for the second.

`O[C@H]1CCCN[C@@H]1CCCn1cnc2cc(Br)ncc21` [Example 125, (2R,3S)-2-(3-(6-bromo-3H-imidazo[4,5-c]pyridin-3-yl)propyl)piperidin-3-ol] and `O[C@H]1CCCN[C@@H]1CCCn1cnc2cncc(Br)c21` [Example 128, (2R,3S)-2-(3-(7-bromo-1H-imidazo[4,5-c]pyridin-1-yl)propyl)piperidin-3-ol] cannot be ordered by IC50: no less than 500 nM for the first, no less than 500 nM for the second.

`O[C@H]1CCCN[C@@H]1CCCn1cnc2nccc(Cl)c21` [Example 126, (2R,3S)-2-(3-(7-chloro-1H-imidazo[4,5-b]pyridin-1-yl)propyl)piperidin-3-ol] and `O[C@H]1CCCN[C@@H]1CCCn1cnc2nc(Cl)c(Cl)cc21` [Example 127, (2R,3S)-2-(3-(5,6-dichloro-1H-imidazo[4,5-b]pyridin-1-yl)propyl)piperidin-3-ol] fall in the same range of IC50: 100 to 500 nM for the first, 100 to 500 nM for the second.

`O[C@H]1CCCN[C@@H]1CCCn1cnc2c(Cl)c(Cl)cnc21` [Example 130, (2R,3S)-2-(3-(6,7-dichloro-3H-imidazo[4,5-b]pyridin-3-yl)propyl)piperidin-3-ol] and `Cc1c(Cl)cnc2c1ncn2CCC[C@H]1NCCC[C@@H]1O` [Example 131, (2R,3S)-2-(3-(6-chloro-7-methyl-3H-imidazo[4,5-b]pyridin-3-yl)propyl)piperidin-3-ol] fall in the same range of IC50: 100 to 500 nM for the first, 100 to 500 nM for the second.

`Cc1c(Br)cnc2c1ncn2CCC[C@H]1NCCC[C@@H]1O` [Example 132, (2R,3S)-2-(3-(6-bromo-7-methyl-3H-imidazo[4,5-b]pyridin-3-yl)propyl)piperidin-3-ol] and `O[C@H]1CCCN[C@@H]1CCCn1cnc2c(Cl)c(Br)cnc21` [Example 133, (2R,3S)-2-(3-(6-bromo-7-chloro-3H-imidazo[4,5-b]pyridin-3-yl)propyl)piperidin-3-ol] cannot be ordered by IC50: 100 to 500 nM for the first, no less than 500 nM for the second.

`O[C@H]1CCCN[C@@H]1CCCn1cnc2c(Cl)c(-c3cccc(Cl)c3)cnc21` [Example 134, (2R,3S)-2-(3-(7-chloro-6-(3-chlorophenyl)-3H-imidazo[4,5-b]pyridin-3-yl)propyl)piperidin-3-ol] and `O[C@H]1CCCN[C@@H]1CCCn1cnc2cnc(Cl)nc21` [Example 136, (2R,3S)-2-(3-(2-chloro-9H-purin-9-yl)propyl)piperidin-3-ol] cannot be ordered by IC50: no less than 500 nM for the first, no less than 500 nM for the second.

`CN(C)c1ncnc2c1ncn2CCC[C@H]1NCCC[C@@H]1O` [Example 137, (2R,3S)-2-(3-(6-(dimethylamino)-9H-purin-9-yl)propyl)piperidin-3-ol] and `CCN(C)c1ncnc2c1ncn2CCC[C@H]1NCCC[C@@H]1O` [Example 139, (2R,3S)-2-(3-(6-(ethyl(methyl)amino)-9H-purin-9-yl)propyl)piperidin-3-ol] cannot be ordered by IC50: no less than 500 nM for the first, no less than 500 nM for the second.

`CCN(CC)c1ncnc2c1ncn2CCC[C@H]1NCCC[C@@H]1O` [Example 138, (2R,3S)-2-(3-(6-(diethylamino)-9H-purin-9-yl)propyl)piperidin-3-ol] and `O[C@H]1CCCN[C@@H]1CCCn1cnc2c(N3CCCC3)ncnc21` [Example 142, (2R,3S)-2-(3-(6-(pyrrolidin-1-yl)-9H-purin-9-yl)propyl)piperidin-3-ol] cannot be ordered by IC50: no less than 500 nM for the first, no less than 500 nM for the second.

`O[C@H]1CCCN[C@@H]1CCCn1cnc2c(N3CCOCC3)ncnc21` [Example 140, (2R,3S)-2-(3-(6-morpholino-9H-purin-9-yl)propyl)piperidin-3-ol] and `O[C@H]1CCCN[C@@H]1CCCn1cnc2c(N3CCCCC3)ncnc21` [Example 141, (2R,3S)-2-(3-(6-(piperidin-1-yl)-9H-purin-9-yl)propyl)piperidin-3-ol] cannot be ordered by IC50: no less than 500 nM for the first, no less than 500 nM for the second.

`Oc1nc2ccccc2n1CCC[C@H]1NCCC[C@@H]1O` [Example 143, 1-(3-((2R,3S)-3-hydroxypiperidin-2-yl)propyl)-1H-benzo[d]imidazol-2-ol] and `OCc1nc2ccccc2n1CCC[C@H]1NCCC[C@@H]1O` [Example 145, (2R,3S)-2-(3-(2-(hydroxymethyl)-1H-benzo[d]imidazol-1-yl)propyl)piperidin-3-ol] cannot be ordered by IC50: no less than 500 nM for the first, no less than 500 nM for the second.

`Oc1nc2cc(Cl)c(Cl)cc2n1CCC[C@H]1NCCC[C@@H]1O` [Example 144, 5,6-dichloro-1-(3-((2R,3S)-3-hydroxypiperidin-2-yl)propyl)-1H-benzo[d]imidazol-2-ol] and `Nc1nc2cc(Cl)c(Cl)cc2n1CCC[C@H]1NCCC[C@@H]1O` [Example 148, (2R,3S)-2-(3-(2-amino-5,6-dichloro-1H-benzo[d]imidazol-1-yl)propyl)piperidin-3-ol] cannot be ordered by IC50: no less than 500 nM for the first, 100 to 500 nM for the second.

`Cc1ccc2c(nc(CO)n2CCC[C@H]2NCCC[C@@H]2O)c1C` [Example 146, (2R,3S)-2-(3-(2-(hydroxymethyl)-4,5-dimethyl-1H-benzo[d]imidazol-1-yl)propyl)piperidin-3-ol] and `OCc1nc2cc(Cl)c(Cl)cc2n1CCC[C@H]1NCCC[C@@H]1O` [Example 147, (2R,3S)-2-(3-(5,6-dichloro-2-(hydroxymethyl)-1H-benzo[d]imidazol-1-yl)propyl)piperidin-3-ol] cannot be ordered by IC50: no less than 500 nM for the first, no less than 500 nM for the second.

`COC(=O)c1cn(CCC[C@H]2NCCC[C@@H]2O)c2c(Br)cccc12` [Example 149, methyl 7-bromo-1-(3-((2R,3S)-3-hydroxypiperidin-2-yl)propyl)-1H-indole-3-carboxylate] and `COC(=O)c1cn(CCC[C@H]2NCCC[C@@H]2O)c2c(Cl)cccc12` [Example 154, methyl 7-chloro-1-(3-((2R,3S)-3-hydroxypiperidin-2-yl)propyl)-1H-indole-3-carboxylate] fall in the same range of IC50: 100 to 500 nM for the first, 100 to 500 nM for the second.

`COC(=O)c1cn(CCC[C@H]2NCCC[C@@H]2O)c2ccc(Br)cc12` [Example 150, methyl 5-bromo-1-(3-((2R,3S)-3-hydroxypiperidin-2-yl)propyl)-1H-indole-3-carboxylate] and `COC(=O)c1cn(CCC[C@H]2NCCC[C@@H]2O)c2cc(Br)ccc12` [Example 151, methyl 6-bromo-1-(3-((2R,3S)-3-hydroxypiperidin-2-yl)propyl)-1H-indole-3-carboxylate] cannot be ordered by IC50: no less than 500 nM for the first, 100 to 500 nM for the second.

`COC(=O)c1cn(CCC[C@H]2NCCC[C@@H]2O)c2cccc(Cl)c12` [Example 152, methyl 4-chloro-1-(3-((2R,3S)-3-hydroxypiperidin-2-yl)propyl)-1H-indole-3-carboxylate] and `COC(=O)c1cn(CCC[C@H]2NCCC[C@@H]2O)c2cc(Cl)ccc12` [Example 153, methyl 6-chloro-1-(3-((2R,3S)-3-hydroxypiperidin-2-yl)propyl)-1H-indole-3-carboxylate] cannot be ordered by IC50: no less than 500 nM for the first, 100 to 500 nM for the second.

`O[C@H]1CCCN[C@@H]1CCCn1nc(C2CC2)c2cc(Cl)ccc21` [Example 155, (2R,3S)-2-(3-(5-chloro-3-cyclopropyl-1H-indazol-1-yl)propyl)piperidin-3-ol] and `O[C@H]1CCCN[C@@H]1CCCn1nc(C(F)(F)F)c2cc(Cl)ccc21` [Example 156, (2R,3S)-2-(3-(5-chloro-3-(trifluoromethyl)-1H-indazol-1-yl)propyl)piperidin-3-ol] cannot be ordered by IC50: no less than 500 nM for the first, no less than 500 nM for the second.

`O[C@H]1CCCN[C@@H]1CCCn1nc(-c2cnn(C(F)F)c2)c2cc(Cl)ccc21` [Example 157, (2R,3S)-2-(3-(5-chloro-3-(1-(difluoromethyl)-1H-pyrazol-4-yl)-1H-indazol-1-yl)propyl)piperidin-3-ol] and `O[C@H]1CCCN[C@@H]1CCCn1nc(-c2cnn(C(F)F)c2)c2ccc(Cl)cc21` [Example 158, (2R,3S)-2-(3-(6-chloro-3-(1-(difluoromethyl)-1H-pyrazol-4-yl)-1H-indazol-1-yl)propyl)piperidin-3-ol] cannot be ordered by IC50: no less than 500 nM for the first, no less than 500 nM for the second.

`Cn1c(=O)n(CCC[C@H]2NCCC[C@@H]2O)c2ccccc21` [Example 159, 1-(3-((2R,3S)-3-hydroxypiperidin-2-yl)propyl)-3-methyl-1H-benzo[d]imidazol-2(3H)-one] showed an IC50 of no less than 500 nM.
